Assay [1] deals with AKR1C3 mediated production of testosterone in LNCaP-AKR1C3 cells. The assay is described as follows: LNCaP-AKR1C3 mediated formation of testosterone from [14C]-Δ4-AD. In kind it is cell-based, human. The following applies: 10 μM inhibitor, 0.1 μM [14C]-Δ4-AD, 48 h, relative to control.
For assay [2], the target named is T1, AKR1C2 (Homo sapiens, UniProt P52895).
T1 sequence (P52895 1-323): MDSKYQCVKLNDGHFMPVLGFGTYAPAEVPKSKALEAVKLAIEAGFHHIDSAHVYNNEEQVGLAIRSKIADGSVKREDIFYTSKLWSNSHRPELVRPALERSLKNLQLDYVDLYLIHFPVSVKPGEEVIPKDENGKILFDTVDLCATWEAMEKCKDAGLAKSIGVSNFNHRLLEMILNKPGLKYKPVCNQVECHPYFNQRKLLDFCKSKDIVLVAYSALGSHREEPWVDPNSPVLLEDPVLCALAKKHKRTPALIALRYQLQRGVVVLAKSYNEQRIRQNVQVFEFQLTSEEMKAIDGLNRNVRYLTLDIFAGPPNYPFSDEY
The assay can be described thus: Inhibition of NADP+ dependent oxidation of S-tetralol catalyzed by AKR1C2. Type of assay: biochemical. The settings on record: selectivity for AKR1C3; high value = high selectivity.

Assay [3] deals with T2, AKR1C3 (Homo sapiens, UniProt P42330).
T2 sequence (P42330 1-323): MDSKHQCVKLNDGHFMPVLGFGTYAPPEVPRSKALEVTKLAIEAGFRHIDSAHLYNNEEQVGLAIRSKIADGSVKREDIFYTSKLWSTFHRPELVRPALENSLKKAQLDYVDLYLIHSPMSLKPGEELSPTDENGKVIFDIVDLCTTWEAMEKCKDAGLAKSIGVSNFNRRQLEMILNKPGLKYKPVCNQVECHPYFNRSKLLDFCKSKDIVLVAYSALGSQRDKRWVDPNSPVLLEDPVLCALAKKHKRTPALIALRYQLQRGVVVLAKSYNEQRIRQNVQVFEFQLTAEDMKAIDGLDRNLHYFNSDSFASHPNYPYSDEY
The assay is described as follows: Inhibition of NADP+ dependent oxidation of S-tetralol catalyzed by AKR1C3. In kind it is biochemical.

The IC50 is the concentration that inhibits the measured activity by half. Read a low IC50 as higher potency.

Molecules are shown by their SMILES. Some results are limits rather than exact numbers.

With `CC(=O)c1ccc(Nc2cccc(C(=O)O)c2)c(C(=O)O)c1` [Compound 4w], the “inhibition of testosterone production in LNCaP-AKR1C3 cells” value in assay [1] was “Almost identical results”. `O=C(O)c1ccc(Nc2ccc(Br)cc2)cc1` [Compound 5l]: the “Ratio IC50 1C2:1C3” value in assay [2] is listed as above 25. On to `O=C(O)c1ccc(Nc2cccc([N+](=O)[O-])c2)cc1` [Compound 5d, 4-((3-nitrophenyl)amino)benzoic acid], for which, in assay [2], the “Ratio IC50 1C2:1C3” value was above 24. Still for that read-out and setting: then `O=C(O)c1cccc(Nc2cccc(C(=O)O)c2)c1` [Compound 4l], with above 28.0. Turning to `O=C(O)c1cccc(Nc2ccc([N+](=O)[O-])cc2)c1` [Compound 4m], half-maximal inhibition in assay [3] (IC50) was put at 33 nM. Same read-out and setting: then `CC(C)(C)c1ccc(Nc2ccccc2C(=O)O)cc1` [Compound 1o], with 38 nM.

The values above are taken from publication PMC3298089 (Journal of Medicinal Chemistry, 2012).
